Measured values as given in patent publication US9868746B2, “Substituted 5-aminothieno[2,3-C]pyridazine-6-carboxamide analogs as positive allosteric modulators of the muscarinic acetylcholine receptor M4” (Vanderbilt University, priority 2012, dated 2018).
Where two headings read alike, the source gives them in different places.

Molecular target: T1, mAChR M4 (Homo sapiens, UniProt P08173)
T1 construct: expressed in transfected cells; host or cells: CHO-K1 cells stably transfected with M4 cDNA and chimeric G-protein Gqi5
T1 sequence (P08173 1-479): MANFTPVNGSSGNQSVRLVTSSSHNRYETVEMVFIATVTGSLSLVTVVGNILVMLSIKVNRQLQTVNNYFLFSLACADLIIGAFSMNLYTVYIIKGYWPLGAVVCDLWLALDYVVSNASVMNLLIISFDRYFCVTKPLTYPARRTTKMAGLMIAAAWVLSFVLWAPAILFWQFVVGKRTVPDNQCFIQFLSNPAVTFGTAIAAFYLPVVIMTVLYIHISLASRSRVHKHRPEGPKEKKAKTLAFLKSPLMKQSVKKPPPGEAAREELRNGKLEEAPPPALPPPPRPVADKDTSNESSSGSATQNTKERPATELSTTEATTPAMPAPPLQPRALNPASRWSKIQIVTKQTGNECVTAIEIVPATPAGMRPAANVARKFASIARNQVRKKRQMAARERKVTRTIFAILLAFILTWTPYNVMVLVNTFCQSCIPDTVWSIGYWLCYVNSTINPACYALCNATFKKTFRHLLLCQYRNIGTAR
Test: mAChR M4 cell-based functional assay (calcium mobilization, potentiation of EC20 acetylcholine response)
Conditions: for Emax at 30 µM: % ACh maximum at 30 μM

[1] = mAChR M4 cell-based functional assay, >10,000 estimated for low potency compounds without plateau, read-out: EC50

SMILES	Emax at 30 µM [%]	EC50 [1] [nM]	EC50 (EC50 (nM)) [nM]
Cc1nnc2sc(C(=O)N3CCC(NS(=O)(=O)c4ccccc4)C3)c(N)c2c1C (stereo not drawn) [Example B207]	64	1300	
Cc1cccc(S(=O)(=O)N2CC(NC(=O)c3sc4nnc(C)c(C)c4c3N)C2)c1 [Example B138]	65	57	
Cc1nnc2sc(C(=O)NCCNC(=O)c3ccncc3)c(N)c2c1C [Example B364]	49	3900	
Cc1nnc2sc(C(=O)NCc3ccc(N4CCOCC4)cc3)c(N)c2c1C [Example B327]	67	120	
Cc1nnc2sc(C(=O)N3CC(F)(c4ccc([S+](C)[O-])cc4)C3)c(N)c2c1C (stereo not drawn) [Example B384]	71	1100	
Cc1cc(NC(=O)c2sc3nnc(C)c(C)c3c2N)ccn1 [Example B88]	43	400	
Cc1nnc2sc(C(=O)NC3CN(C(=O)Oc4ccccc4)C3)c(N)c2c1C [Example B151]	57	9.5	
Cc1nnc2sc(C(=O)NC3CCN(S(=O)(=O)c4cccc(F)c4)C3)c(N)c2c1C (stereo not drawn) [Example B253]	71	390	
Cc1nnc2sc(C(=O)NCc3ccc(S(=O)(=O)CCO)cc3)c(N)c2c1C [Example B387]	77	68	
Cc1nnc2sc(C(=O)NCc3ccc(S(=O)(=O)C(F)F)cc3)c(N)c2c1C [Example B117]	66		18
Cc1nnc2sc(C(=O)NCc3ccc(S(=O)(=O)C4CC4)cc3)c(N)c2c1C [Example B92]	53		23
Cc1nnc2sc(C(=O)NCc3ccc(O)c(F)c3)c(N)c2c1C [Example B158]	66	28	
CC(=O)NCCNC(=O)c1sc2nnc(C)c(C)c2c1N [Example B366]	32	> 10000	
Cc1nnc2sc(C(=O)NC3CN(c4nc5ccccc5o4)C3)c(N)c2c1C [Example B425]	74	28	
Nc1c(C(=O)NCc2ccc3c(c2)OCO3)sc2nnc3c(c12)CCCC3 [Example B50]	49	61	
COc1ccc(SC2CN(C(=O)c3sc4nnc(C)c(C)c4c3N)C2)cc1 [Example B416]	61	110	
Cc1nnc2sc(C(=O)N3CC(F)(c4cccc(-c5cccnc5)c4)C3)c(N)c2c1C [Example B321]	48	290	

SMILES	Emax at 30 µM [%]	EC50 [1] [nM]	EC50 (EC50 (nM)) [nM]
Cc1nnc2sc(C(=O)NCc3ccc(-c4ccncc4)cc3)c(N)c2c1C [Example B457]	75	19	
COc1ncc(CNC(=O)c2sc3nnc(C)c(C)c3c2N)cn1 [Example B399]	62	290	
CCCCC1(OC)CN(C(=O)c2sc3nnc(C)c(C)c3c2N)C1 [Example B305]	68	870	
Cc1nnc2sc(C(=O)NC3CN(S(=O)(=O)c4ccc(C(F)(F)F)cc4)C3)c(N)c2c1C [Example B147]	95	87	
COc1ccc(S(=O)(=O)C2CN(C(=O)c3sc4nnc(C)c(C)c4c3N)C2)cc1 [Example B417]	46	750	
Cc1nnc2sc(C(=O)NCCNC(=O)OCc3ccccc3)c(N)c2c1C [Example B345]	64	3600	
Nc1c(C(=O)NCc2ccc3c(c2)OCCO3)sc2nnc3c(c12)CCCC3 [Example B56]	54	72	
Cc1nnc2sc(C(=O)NCc3ccc(S(F)(F)(F)(F)F)cc3)c(N)c2c1C [Example B297]	76		30
Cc1nnc2sc(C(=O)N3CC(F)(c4ccncc4)C3)c(N)c2c1C [Example B312]	55	2800	
Cc1nnc2sc(C(=O)NC3CN(C(=O)Cc4cccs4)C3)c(N)c2c1C [Example B154]	88	70	
Cc1nnc2sc(C(=O)N3CC(N)(c4ccccc4)C3)c(N)c2c1C [Example B306]	51	1100	
Cc1nnc2sc(C(=O)Nc3ccncc3)c(N)c2c1C [Example B38]	54	600	
Cc1nnc2sc(C(=O)NC3CN(C(=O)c4ccncc4)C3)c(N)c2c1C [Example B150]	62	190	
Cc1nnc2sc(C(=O)NCc3ccc4ccccc4c3)c(N)c2c1C [Example B86]	62	80	
Cc1nnc2sc(C(=O)NC3CCN(c4ccccc4C(F)(F)F)C3)c(N)c2c1C (stereo not drawn) [Example B284]	71	150	
Cc1nnc2sc(C(=O)NC3CN(S(=O)(=O)c4ccco4)C3)c(N)c2c1C [Example B99]	65	160	

Further lines, with some results ahead:

Emax at 30 µM [%]	EC50 [1] [nM]	SMILES	EC50 (EC50 (nM)) [nM]
49	980	Cc1nnc2sc(C(=O)N3CC4CN(C(=O)Oc5ccccc5)CC4C3)c(N)c2c1C (stereo not drawn) [Example B336]	
30	380	COc1cncc(NC(=O)c2sc3nnc(C)c(C)c3c2N)c1 [Example B72]	
77	350	Cc1nnc2sc(C(=O)NC3CCN(C(=O)c4ccc(F)cc4)C3)c(N)c2c1C (stereo not drawn) [Example B219]	
44	87	Cc1nnc2sc(C(=O)N3CC(F)(c4cccc(-c5ccncc5)c4)C3)c(N)c2c1C [Example B323]	
68	30	Cc1nnc2sc(C(=O)NCc3ccc(OC(F)(F)F)cc3)c(N)c2c1C [Example B181]	
90	120	Cc1nnc2sc(C(=O)NC3CN(S(=O)(=O)c4cccc5c4OCCC5)C3)c(N)c2c1C [Example B143]	
66	1600	Cc1nnc2sc(C(=O)NCc3ccc([S+]([O-])C(F)(F)F)cc3)c(N)c2c1C (stereo not drawn) [Example B476]	
54	> 10000	Cc1nnc2sc(C(=O)NCCN3CCOCC3)c(N)c2c1C [Example B28]	
66	50	Cc1nnc2sc(C(=O)N3CC(C4CCCCC4)C3)c(N)c2c1C [Example B262]	
63	11	Cc1nnc2sc(C(=O)NCc3ccc(-c4cccnc4)cc3)c(N)c2c1C [Example B464]	
75	1500	Cc1nnc2sc(C(=O)NC3CCCCC3)c(N)c2c1C [Example B97]	
77	840	Cc1nnc2sc(C(=O)NC3CCOC3)c(N)c2c1C (stereo not drawn) [Example B35]	
72	1000	Cc1nnc2sc(C(=O)NC3CN(S(=O)(=O)c4cn(C)cn4)C3)c(N)c2c1C [Example B136]	
73	2100	Cc1nnc2sc(C(=O)NC3CCN(C(=O)N4CCOCC4)C3)c(N)c2c1C (stereo not drawn) [Example B208]	
81	34	Cc1nnc2sc(C(=O)NCc3ccc(C(F)F)cc3)c(N)c2c1C [Example B260]	
71	69	Cc1nnc2sc(C(=O)NCc3ccc(N(C)C)cc3)c(N)c2c1C [Example B449]	
55	180	CCCCC1(F)CN(C(=O)c2sc3nnc(C)c(C)c3c2N)C1 [Example B307]	
71	78	Cc1nnc2sc(C(=O)NC3CN(C(=O)c4ccccc4)C3)c(N)c2c1C [Example B160]	
51	88	Nc1c(C(=O)NCc2ccc(S(=O)(=O)CF)cc2)sc2nnc3c(c12)CCCC3 [Example B428]	
41	3100	Cc1nnc2sc(C(=O)N3CC(NC(=O)C4CC4)C3)c(N)c2c1C [Example B166]	
68	210	Cc1nnc2sc(C(=O)NC3CN(S(C)(=O)=O)C3)c(N)c2c1C [Example B80]	
